According to PMC12444472, “BCI inhibits MKP3 by targeting the kinase-binding domain and disrupting ERK2 interaction” (The Journal of Biological Chemistry, 2025):

What was measured:
MKP3^FL = biological target: T1, MKP3^FL (Homo sapiens, UniProt Q16828); assay: Phosphatase activity toward pNPP in the presence of ERK2; type: biochemical
T1 construct: MKP3(1–381) (MKP3^FL); made in house; host or cells: Escherichia coli BL21(DE3)
T1 sequence (Q16828 1-381): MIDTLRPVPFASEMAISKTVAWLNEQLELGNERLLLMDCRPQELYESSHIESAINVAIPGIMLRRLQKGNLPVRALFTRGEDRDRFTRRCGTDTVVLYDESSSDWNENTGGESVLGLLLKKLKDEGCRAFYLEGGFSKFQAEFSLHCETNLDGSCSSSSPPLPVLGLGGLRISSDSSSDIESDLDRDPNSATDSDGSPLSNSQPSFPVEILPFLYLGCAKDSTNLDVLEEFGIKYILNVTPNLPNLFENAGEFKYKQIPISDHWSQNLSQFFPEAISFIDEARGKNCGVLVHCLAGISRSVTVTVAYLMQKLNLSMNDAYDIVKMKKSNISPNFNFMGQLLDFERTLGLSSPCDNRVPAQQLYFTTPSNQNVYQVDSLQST
Procedure: The phosphatase activity of MKP3 toward pNPP was measured using continuous spectrophotometric assays, either in the absence or the presence of ERK2 at a 1:1 M ratio with MKP3. Experiments were conducted at 25 °C in a reaction mixture with a total volume of 1.8 ml, containing 50 mM Mops (pH 7.0), 100 mM NaCl, and 0.1 mM EDTA. MKP3 (1 μM) was preincubated with varying concentrations of the inhibitor BCI for 5 min before initiating the reaction by adding pNPP at concentrations ranging from 0 to 14 mM. Continuous absorbance changes were recorded using a PerkinElmer LAMBDA 45 spectrophotometer equipped with a magnetic stirrer in the cuvette holder. The production of p-nitrophenol was monitored at 410 nm using an extinction coefficient of 18,000 M^-1 cm^-1.
Stock solutions of BCI (dissolved in DMSO) at different concentrations were prepared to maintain a constant DMSO concentration across all BCI concentrations in the phosphatase inhibition assays, thereby eliminating potential effects of varying DMSO levels on detection. Initial reaction rates were determined from the linear slope of progress curves, and the data were analyzed using nonlinear regression. Kinetic parameters (kcat and Km) were obtained by fitting the data to the Michaelis–Menten equation: v0 = kcat[E][S]/(Km + [S]). […]

[1] = biological target: T2, MKP3^KBD and ERK2 complex (Homo sapiens, UniProt Q16828); assay: NMR competitive binding titration of ERK2 and BCI; conditions: excess BCI added to MKP3^KBD and ERK2 complex
T2 construct: spectra of ^15N-MKP3^1–154 in the presence of ERK2; made in house; host or cells: Escherichia coli BL21(DE3)
T2 sequence (Q16828 1-154): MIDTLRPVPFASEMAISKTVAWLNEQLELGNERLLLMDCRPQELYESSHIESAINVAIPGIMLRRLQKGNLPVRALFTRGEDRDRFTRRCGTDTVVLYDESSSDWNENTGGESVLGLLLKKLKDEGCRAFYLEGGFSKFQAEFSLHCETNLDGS
Procedure: NMR data were collected at 298 K on a Bruker AVANCE NEO 800 MHz spectrometer (Bruker BioSpin) equipped with a ^1H&^19F/^13C/^15N TCI cryogenic probe. Backbone resonances of MKP3^1–154 were assigned using 2D/3D experiments, including 2D ^1H–^15N HSQC and 3D ^1H/^13C/^15N CBCA(CO)NH, HNCACB, HNCO, and HN(CA)CO, performed with uniformly ^13C/^15N labeled protein at a final concentration of 0.39 mM in buffer containing 20 mM imidazole (pH 6.0), 100 mM NaCl, 5 mM DTT, 0.5 mM EDTA, and 5% (v/v) D2O. The buffer used for backbone resonance assignment was similar to that used for the previously reported NMR structure ([15]). […] The relaxation rates R1 (1/T1) and R2 (1/T2) for each residue were determined by fitting the peak intensities from spectra acquired at the various delay times to a single-exponential decay function: I/I0 = exp(-R1,2·t), where I0 is the intensity at t = 0, and I is the intensity at a delay time t. […] Repeated experiments were performed to estimate uncertainties, and the propagated error for each NOE value was calculated using the following equation: σNOE = NOE × ((σsat/Isat)^2+(σunsat/Iunsat)^2)^1/2, where σsat and σunsat are the SDs of the saturated and unsaturated spectra, respectively, and Isat and Iunsat are the corresponding signal intensities. NMR data were processed using TopSpin 4.1.1 (Bruker BioSpin) or NMRPipe ([54]) and analyzed with POKY ([55]).

With O=C1/C(=C/c2ccccc2)C(NC2CCCCC2)c2ccccc21 (stereo not drawn) [BCI, (E)-2-benzylidene-3-(cyclohexylamino)-2,3-dihydro-1H-inden-1-one] the “ERK2-induced MKP3 activity relative to its initial level” value (MKP3^FL; BCI at molar concentration 20 times that of ERK2) was “one-seventh”, the “effect on MKP3's Michaelis constant (Km) for pNPP” value (MKP3^FL; ERK2 at 1:1 with MKP3^FL) was “did not significantly alter” and the “effect on ERK2-bound MKP3^KBD spectrum” value [1] was “reversion of specific MKP3^KBD peaks to their ERK2-unbound state”.
